Source: patent US20110319491A1, “ANHYDROUS DEPIGMENTING COMPOSITIONS COMPRISING, WITHIN THE FATTY PHASE THEREOF, A SOLUBILIZED PHENOLIC COMPOUND AND A RETINOID” (GALDERMA RESEARCH & DEVELOPMENT, priority 2009, published 2011)
Like-named read-outs stand apart in the source and are kept apart here.

What was measured:
[1] = Chemical stability of the formulations (HPLC assay of the active agents); type: physicochemical
Procedure: The chemical stability is measured by assaying the active agents by external calibration in HPLC and the results are expressed as a % of […] relative to the theoretical value.

[2] = in all the solvents that may be used for retinoids; cited from earlier work
[3] = Stability of hydroquinone in solvent oils and lipophilic surfactants (HPLC assay, colour)
[4] = cited from earlier work
[5] = Rucinol solubilities in solvents (HPLC); type: physicochemical
[6] = Stability of rucinol in solvent oils and lipophilic surfactants (HPLC assay); type: physicochemical; settings: T0 = 100%
Excerpt: Assay technique by HPLC against reference substance.
The initial time (T0) is considered as 100%.

[7] = in composition of Example 2, 40° C., T + 1 M
[8] = in composition of Example 2, 40° C., T + 2 M
[9] = in composition of Example 2, 40° C., T + 3 M
[10] = in composition of Example 2, RT, T + 1 M
[11] = in composition of Example 2, RT, T + 2 M
[12] = in composition of Example 2, RT, T + 3 M
[13] = in composition of Example 3, 4° C., T + 1 M
[14] = in composition of Example 3, 4° C., T + 2 M
[15] = in composition of Example 3, 40° C., T + 1 M
[16] = in composition of Example 3, 40° C., T + 2 M
[17] = in composition of Example 3, RT, T0
[18] = in composition of Example 3, RT, T + 1 M
[19] = in composition of Example 3, RT, T + 2 M
[20] = in Caprylic capric triglycerides
[21] = in Cremophor EL, 1 month, 40° C.
[22] = in Cremophor EL, 3 months, 40° C.
[23] = in Crodamol DA, 1 month, 40° C.
[24] = in Crodamol DA, 3 months, 40° C.
[25] = in Ethanol/water (20/80), 1 month, 40° C.
[26] = in Ethanol/water (20/80), 1 month, RT
[27] = in Ethanol/water (20/80), 3 months, 40° C.
[28] = in Ethanol/water (20/80), 3 months, RT
[29] = in Propylene glycol, 1 month, 40° C.
[30] = in Propylene glycol, 1 month, RT
[31] = in Propylene glycol, 3 months, 40° C.
[32] = in Propylene glycol, 3 months, RT

COc1ccc(-c2ccc3cc(C(=O)O)ccc3c2)cc1C12CC3CC(CC(C3)C1)C2 [Adapalene, 6-(3-(1-adamantyl)-4-methoxyphenyl)-2-naphthoic acid]
Chemical stability: adapalene assay, % relative to the theoretical value [1, 7]: 92.4%
Chemical stability: adapalene assay, % relative to the theoretical value [1, 8]: 96.8%
Chemical stability: adapalene assay, % relative to the theoretical value [1, 9]: 94.5%
Chemical stability: adapalene assay, % relative to the theoretical value [1, 10]: 94%
Chemical stability: adapalene assay, % relative to the theoretical value [1, 11]: 97.4%
Chemical stability: adapalene assay, % relative to the theoretical value [1, 12]: 95.3%
Chemical stability: adapalene assay, % relative to the theoretical value [1, 13]: 104%
Chemical stability: adapalene assay, % relative to the theoretical value [1, 14]: 107.0%
Chemical stability: adapalene assay, % relative to the theoretical value [1, 15]: 108%
Chemical stability: adapalene assay, % relative to the theoretical value [1, 16]: 106.0%
Chemical stability: adapalene assay, % relative to the theoretical value [1, 17]: 108.7%
Chemical stability: adapalene assay, % relative to the theoretical value [1, 18]: 106%
Chemical stability: adapalene assay, % relative to the theoretical value [1, 19]: 106.0%
Solubility of adapalene (in words) [2]: insoluble

Oc1ccc(O)cc1 [Hydroquinone, hydroquinone]
Max. solubility (w/w) (in Arlamol E): 11.9 w/w
Max. solubility (w/w) [20]: 1.7 w/w
Max. solubility (w/w) (in Castor oil): 6.5 w/w
Max. solubility (w/w) (in Cremophor EL): 27.9 w/w
Solubility of hydroquinone (in words) (in Cremophor EL): high solubility
Max. solubility (w/w) (in Crodamol DA): 10.7 w/w
Max. solubility (w/w) (in Ethanol/water (20/80)): 17 w/w
Max. solubility (w/w) (in Glycerol): 15.6 w/w
Max. solubility (w/w) (in Labrasol): 28.9 w/w
Max. solubility (w/w) (in Lauroglycol): 5.5 w/w
Max. solubility (w/w) (in PEG 400): 19.8 w/w
Max. solubility (w/w) (in Propylene glycol): 15.6 w/w
Chemical stability: hydroquinone assay, % relative to the theoretical value [1, 7]: 97.6%
Chemical stability: hydroquinone assay, % relative to the theoretical value [1, 8]: 100.8%
Chemical stability: hydroquinone assay, % relative to the theoretical value [1, 9]: 99.2%
Chemical stability: hydroquinone assay, % relative to the theoretical value ([1]; in composition of Example 2, 40° C., T + 6 M): 97.2%
Chemical stability: hydroquinone assay, % relative to the theoretical value [1, 10]: 98.9%
Chemical stability: hydroquinone assay, % relative to the theoretical value [1, 11]: 101.8%
Chemical stability: hydroquinone assay, % relative to the theoretical value [1, 12]: 98.8%
Chemical stability: hydroquinone assay, % relative to the theoretical value ([1]; in composition of Example 2, RT, T + 6 M): 100.6%
% (HPLC assay, T0 = 100%) ([3]; in Arlamol E, 1 month, 40° C.): 95.5%
Colour ([3]; in Arlamol E, 1 month, 40° C.): Colourless
% (HPLC assay, T0 = 100%) ([3]; in Arlamol E, 1 month, RT): 95.9%
Colour ([3]; in Arlamol E, 1 month, RT): Colourless
% (HPLC assay, T0 = 100%) ([3]; in Arlamol E, 3 months, 40° C.): 96.0%
Colour ([3]; in Arlamol E, 3 months, 40° C.): Colourless
% (HPLC assay, T0 = 100%) ([3]; in Arlamol E, 3 months, RT): 95.9%
Colour ([3]; in Arlamol E, 3 months, RT): Colourless
% (HPLC assay, T0 = 100%) [3, 21]: 87.1%
Colour [3, 21]: Brown
% (HPLC assay, T0 = 100%) ([3]; in Cremophor EL, 1 month, RT): 91.4%
Colour ([3]; in Cremophor EL, 1 month, RT): Orange
% (HPLC assay, T0 = 100%) [3, 22]: 85.1%
Colour [3, 22]: Brown++
% (HPLC assay, T0 = 100%) ([3]; in Cremophor EL, 3 months, RT): 87%
Colour ([3]; in Cremophor EL, 3 months, RT): Brown+
Macroscopic stability of hydroquinone (in words) ([3]; in Cremophor EL, browning that becomes pronounced over time and with temperature): macroscopic instability
Chemical and physical stability of hydroquinone (in words) ([3]; in Crodamol DA, Arlamol E and Labrasol): good chemical and physical stability
% (HPLC assay, T0 = 100%) [3, 23]: 95.9%
Colour [3, 23]: Colourless
% (HPLC assay, T0 = 100%) ([3]; in Crodamol DA, 1 month, RT): 96.5%
Colour ([3]; in Crodamol DA, 1 month, RT): Colourless
% (HPLC assay, T0 = 100%) [3, 24]: 97.4%
Colour [3, 24]: Colourless
% (HPLC assay, T0 = 100%) ([3]; in Crodamol DA, 3 months, RT): 97.6%
Colour ([3]; in Crodamol DA, 3 months, RT): Colourless
% (HPLC assay, T0 = 100%) [3, 25]: 91.7%
Colour [3, 25]: Dark pink
% (HPLC assay, T0 = 100%) [3, 26]: 94.4%
Colour [3, 26]: Orange
% (HPLC assay, T0 = 100%) [3, 27]: 89.4%
Colour [3, 27]: Brown
% (HPLC assay, T0 = 100%) [3, 28]: 93.9%
Colour [3, 28]: Orange
% (HPLC assay, T0 = 100%) ([3]; in Glycerol, 1 month, 40° C.): 93.5%
Colour ([3]; in Glycerol, 1 month, 40° C.): Dark yellow
% (HPLC assay, T0 = 100%) ([3]; in Glycerol, 1 month, RT): 95.0%
Colour ([3]; in Glycerol, 1 month, RT): Yellow
% (HPLC assay, T0 = 100%) ([3]; in Glycerol, 3 months, 40° C.): 93.3%
Colour ([3]; in Glycerol, 3 months, 40° C.): Orange
% (HPLC assay, T0 = 100%) ([3]; in Glycerol, 3 months, RT): 93.0%
Colour ([3]; in Glycerol, 3 months, RT): Pink
% (HPLC assay, T0 = 100%) ([3]; in Labrasol, 1 month, 40° C.): 95.2%
Colour ([3]; in Labrasol, 1 month, 40° C.): Colourless
% (HPLC assay, T0 = 100%) ([3]; in Labrasol, 1 month, RT): 95.4%
Colour ([3]; in Labrasol, 1 month, RT): Colourless
% (HPLC assay, T0 = 100%) ([3]; in Labrasol, 3 months, 40° C.): 95.1%
Colour ([3]; in Labrasol, 3 months, 40° C.): Colourless
% (HPLC assay, T0 = 100%) ([3]; in Labrasol, 3 months, RT): 94.6%
Colour ([3]; in Labrasol, 3 months, RT): Colourless
% (HPLC assay, T0 = 100%) ([3]; in Miglyol, 1 month, 40° C.): 95%
Colour ([3]; in Miglyol, 1 month, 40° C.): Colourless
% (HPLC assay, T0 = 100%) ([3]; in Miglyol, 1 month, RT): 94.2%
Colour ([3]; in Miglyol, 1 month, RT): Colourless
% (HPLC assay, T0 = 100%) ([3]; in Miglyol, 3 months, 40° C.): 95%
Colour ([3]; in Miglyol, 3 months, 40° C.): Colourless
% (HPLC assay, T0 = 100%) ([3]; in Miglyol, 3 months, RT): 93.1%
Colour ([3]; in Miglyol, 3 months, RT): Colourless
% (HPLC assay, T0 = 100%) ([3]; in PEG 400, 1 month, 40° C.): 91.4%
Colour ([3]; in PEG 400, 1 month, 40° C.): Orange
% (HPLC assay, T0 = 100%) ([3]; in PEG 400, 1 month, RT): 93.4%
Colour ([3]; in PEG 400, 1 month, RT): Pink
% (HPLC assay, T0 = 100%) ([3]; in PEG 400, 3 months, 40° C.): 91.8%
Colour ([3]; in PEG 400, 3 months, 40° C.): Brown
% (HPLC assay, T0 = 100%) ([3]; in PEG 400, 3 months, RT): 89.0%
Colour ([3]; in PEG 400, 3 months, RT): Brown
% (HPLC assay, T0 = 100%) [3, 29]: 91.8%
Colour [3, 29]: Yellow
% (HPLC assay, T0 = 100%) [3, 30]: 97.0%
Colour [3, 30]: Colourless
% (HPLC assay, T0 = 100%) [3, 31]: 88.8%
Colour [3, 31]: Dark yellow
% (HPLC assay, T0 = 100%) [3, 32]: 94.2%
Colour [3, 32]: Yellow
Colour stability of hydroquinone (in words) ([3]; in solvents of the prior art such as glycols, RT and 40° C., absence of antioxidants): colouration is observed
Incidence of irritation ([4]; 2% hydroquinone concentration): virtually nonexistent
Incidence of irritation ([4]; 10% hydroquinone concentration): relatively high
Incidence of irritation ([4]; preparations with a 5% dose of hydroquinone): reduces greatly

CCCCc1ccc(O)cc1O [Rucinol, 4-butylresorcinol]
Chemical stability: rucinol assay, % relative to the theoretical value [1, 13]: 99.4%
Chemical stability: rucinol assay, % relative to the theoretical value [1, 14]: 97.4%
Chemical stability: rucinol assay, % relative to the theoretical value [1, 15]: 98.8%
Chemical stability: rucinol assay, % relative to the theoretical value [1, 16]: 97.8%
Chemical stability: rucinol assay, % relative to the theoretical value [1, 17]: 98.1%
Chemical stability: rucinol assay, % relative to the theoretical value [1, 18]: 100.6%
Chemical stability: rucinol assay, % relative to the theoretical value [1, 19]: 101.6%
Max. solubility (% w/w) ([5]; in Arlamol E): 48.2 % w/w
Max. solubility (% w/w) [5, 20]: 47.8 % w/w
Max. solubility (% w/w) ([5]; in Castor oil): 46.4 % w/w
Max. solubility (% w/w) ([5]; in Cremophor EL): 49.7 % w/w
Max. solubility (% w/w) ([5]; in Crodamol DA): 64.1 % w/w
Max. solubility (% w/w) ([5]; in Ethanol): >75.5 % w/w
Max. solubility (% w/w) ([5]; in Glycerol): 63.8 % w/w
Max. solubility (% w/w) ([5]; in Labrasol): 60.9 % w/w
Max. solubility (% w/w) ([5]; in Lauroglycol): 52.8 % w/w
Max. solubility (% w/w) ([5]; in PEG 400): 61.6 % w/w
Max. solubility (% w/w) ([5]; in Propylene glycol): >67.7 % w/w
Solubility of rucinol (in words) ([5]; in all the solvents tested): very good solubility
T + 1 month (% LC) ([6]; in Arlamol E, 40° C.): 94.4 % LC
T + 1 month (% LC) ([6]; in Arlamol E, RT): 95 % LC
T + 1 month (% LC) ([6]; in Cremophor EL, 40° C.): 96.2 % LC
T + 1 month (% LC) ([6]; in Cremophor EL, RT): 96 % LC
T + 1 month (% LC) ([6]; in Ethanol, 40° C.): 105 % LC
T + 1 month (% LC) ([6]; in Ethanol, RT): 100.4 % LC
T + 1 month (% LC) ([6]; in Labrasol, 40° C.): 100.8 % LC
T + 1 month (% LC) ([6]; in Labrasol, RT): 97.8 % LC
T + 1 month (% LC) ([6]; in Miglyol, 40° C.): 99.8 % LC
T + 1 month (% LC) ([6]; in Miglyol, RT): 91.2 % LC
